According to patent US20220395553A1, “CXCR4 ANTAGONIST PEPTIDES” (COHBAR, INC., priority 2019, published 2022):
Square brackets hold non-standard residues; d marks the D form. Ends that are not written are not given here. Peptide text beside a SMILES is read from it.

Experiments:
[1] = test system: B16F10, mouse melanoma cell line; experiment: Tumor growth in B16F10 syngeneic mouse cancer model; type: in vivo; conditions: peptide 10 mg/kg QD subcutaneous, temozolomide 50 mg/kg TIW oral gavage; for Mean (SEM) Percent Reduction in Tumor Volume vs Control: Day 11, relative to vehicle control; for Mean (SEM) Tumor Volume on Day 11: female C57Bl/6 mice, 8-10 animals per arm
Experimental: The effect of the peptides on tumor growth can be assessed by monitoring tumor volume in a syngeneic mouse cancer model, such as B16F10, mouse melanoma cell line. The study was performed by HD Biosciences/WuXi (San Diego, Calif.). B16F10 cells were expanded in culture for a maximum of five passages prior to implantation, until growing exponentially when harvested. On Day 0, B16F10 cells (0.2×10^6 cells in […] serum free media; >95% viable tumor cells) were implanted into the right hind flank of female C57Bl/6 mice. When a mean tumor volume of approximately 100 mm^3 (range 75-125 mm^3) was reached, tumor-bearing animals were randomized and treatments were initiated on the same day. Test peptides were resuspended in phosphate buffered saline (PBS) and administered once daily (QD) by subcutaneous injection at 10 mg/kg in 5.0 ml/kg vehicle. Vehicle (PBS) was administered QD by intraperitoneal injection in 5 ml/kg. Temozolomide was administered three times per week (TIW) by oral gavage at 50 mg/kg in 5.0 ml/kg vehicle. Animals were inspected daily over the course of 11 days for abnormalities. Tumor volumes were determined by calliper measurements twice per week and calculated according to the formula: V (mm^3)=W^2×L/2 (L=length and W=the perpendicular width of the tumor, L>W). Data are presented as the mean (SEM) of 8-10 animals per arm for tumor volume on Day 11 and percent decrease in tumor volume relative to vehicle control treatment. Treatment with a combination of test peptide and temozolomide produced a greater reduction in tumor volume compared to either vehicle control treatment or treatment with temozolomide alone.

[2] = test system: CXCR4/CXCL12 induced p-MEK; experiment: CXCR4/CXCL12 induced p-MEK in Jurkat cells (ELISA); type: cell-based, human; conditions: 5 nM CXCL12, 5 min
In short: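 Jurkat cells in RPMI+GlutaMax containing 10% FBS and 1% penicillin/streptomycin, fresh or conditioned, were resuspended at 2×10^6 cells/ml and […] aliquots placed in tubes. After a 5 min stimulation they were pelleted, rinsed with HBSS and lysed with PMSF and protease/phosphatase inhibitors. Phospho-MEK1 (Ser217/221) was quantified by sandwich ELISA with absorbance read at 450 nm.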

Jurkat cells = experiment: CXCL12 mediated cell migration, Jurkat cells; type: cell-based, human; conditions: 1.1 μM test article, 100 ng/ml CXCL12, 1 hour
In short: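 Jurkat cells in serum-free RPMI with 0.5% BSA, 250,000 per upper chamber of a 5 μm Transwell, with peptides at 1.1 μM final. Migration toward CXCL12 ran 1 h at 37 °C in 5% CO2. Cells reaching the lower chamber quantified by ATP luminescence (CellTiter-Glo 2.0).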

human CXCR4 [3] = target: T1, human CXCR4 (Homo sapiens, UniProt P61073); experiment: CXCR4/CXCL12 binding, HTRF format, single concentration (Example 23); set-up: host or cells: HEK293 (Tag-lite CXCR4 cells, frozen aliquots, transient expression); conditions: 15 nM CXCR4R fluorescent probe, 3 hours, HEK293 Tag-lite CXCR4 cells
In short: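 Tag-lite CXCR4 cells were exposed to peptide at 400 nM final with 15 nM (EC80) fluorescent CXCR4 probe for 3 h at room temperature. HTRF was read, and the 665/620 nm ratio ×10,000 measured probe bound to terbium-labelled receptor.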

human CXCR4 [4] = target: T1, human CXCR4; experiment: IC50 for inhibition of CXCR4 activation, β-Arrestin recruitment (Example 22); type: cell-based; set-up: host or cells: C2C12 (mouse myoblast) CXCR4 β-Arrestin PathHunter cell line
In short: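 C2C12 cells co-expressing ProLink-tagged human CXCR4 and Enzyme Acceptor-tagged β-arrestin (PathHunter). Peptides tested in 10-point, 3-fold dilutions from 1 μM (1 μM–0.05 nM). Recruitment read by chemiluminescent enzyme-fragment complementation after 90 min incubation.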

human CXCR4 [5] = target: T1, human CXCR4; experiment: IC50 for CXCR4/CXCL12 ligand binding, HTRF format (Example 24); set-up: host or cells: HEK293 (Tag-lite CXCR4 cells, frozen aliquots, transient expression)
Experimental: Peptides were initially prepared as 1 mM stock in H2O. […] Following the manufacture's protocol, a frozen aliquot of Tag-lite CXCR4 cells was thawed and immediately seeded onto 384-well plates in TLB. […] The plates were covered in aluminum foil and left at room temperature for 3 hours. Following the 3 hour incubation period, the plates were removed from the incubator and fluorescence measured using a Cytation 1 plate reader using a HTRF filter cube ([…]; BioTek; Winooski, Vt.).

C2C12 Mouse Myoblasts = experiment: Glucose utilization in C2C12 mouse myoblasts; type: cell-based; conditions: metformin 1 mM
Experimental: The effect of the peptides on glucose metabolism can be assessed using an assay of glucose utilization in cultured cultured cells such as mouse myoblasts. Peptides were initially prepared as 10 mM stock in DMSO and used at a final concentration of 10 μM (0.1% DMSO). C2C12 mouse myoblast cell line was purchased from American Type Culture Collection (Manassas, Va.). C2C12 cultures were maintained at 37° C. in a humidified atmosphere of 5% CO2/95% air with medium changes every second day. C2C12 cells were grown in DMEM (1 g/L glucose) supplemented with 10% FBS with 100 IU/ml penicillin and 100 μg/ml streptomycin. C2C12 cells were seeded at 7,000 cells per well on 96-well plates and cultured to confluence. Once the cell reached confluence the media was changed to DMEM (1 g/L glucose) supplemented with 2% HS with 100 IU/ml penicillin and 100 μg/ml streptomycin and maintained at 37° C. in a humidified atmosphere of 5% CO2/95% air, 5 days post-induction of differentiation fresh DMEM (1 g/L glucose) supplemented with 2% HS with 100 IU/ml penicillin and 100 μg/ml streptomycin was added to cultures. Cells were maintained at 37° C. in a humidified atmosphere of 5% CO2 and 95% air for 5 hours. After 5 hours test peptides at 10 μM or controls (0.5 mM or 1 mM metformin in 1% DMSO) prepared in fresh differentiation medium were added to cells and the cultures were maintained at 37° C. in a humidified atmosphere of 5% CO2/95% air for 18-22 hours. At the end of the incubation culture media was removed from the cells and the remaining glucose concentration was measured using a Glucose Assay kit (Abcam) according to the manufacturer's instructions, using a Cytation 3 plate reader at 570 nm (BioTek, Winooski, Vt.). Glucose concentrations in the medium were calculated relative to 0.1% DMSO treated control cells. The relative standard deviation of the result for the 0.1% DMSO treated control was <20%. Metformin was used as a positive control for reduction of glucose levels (increased glucose utilization glucose levels for treatment with metformin (1 mM) treatment were <20% of the 0.1% DMSO treated control value. The results are reported in Table 7.

3T3-L1 Mouse Adipocytes = experiment: Free fatty acid levels in cultured mouse adipocytes; type: cell-based; conditions: insulin 100 nM
Experimental: The effect of the peptides on fatty acid metabolism can be assessed using an assay of free fatty acid levels in cultured cells such as mouse adipocytes. Peptides were initially prepared as 10 mM stock in DMSO and used at a final concentration of 10 μM (0.1% DMSO). […] Mouse 3T3-L1 cells purchased from ZenBio were seeded at 3,000 cells per well in 96-well plates in Pre-adipocyte Medium (Zen-Bio) and grown to confluence at 37° C. in a humidified atmosphere of 5% CO2/95% air. Two days after confluence, cells were placed in Adipocyte Differentiation Medium (Zen-Bio) and cultured for three additional days at 37° C. in a humidified atmosphere of 5% CO2/95% air. The culture media was then replaced with Adipocyte Maintenance Medium (Zen-Bio) and the cells maintained for an additional 9-12 days at 37° C. in a humidified atmosphere of 5% CO2/95% air with partial medium replacement every other day. Following 12-15 days of differentiation, test peptides were added at a final concentration of 10 μM in 0.1% DMSO and incubated for 20-22 hours in Adipocyte Maintenance Medium at 37° C. in a humidified atmosphere of 5% CO2/95% air. After 20-22 hours, 1 nM isoproterenol was added to all wells except untreated controls and test peptides were replenished. Insulin at 100 nM was added to control wells. Cells were incubated for 3 hours in Assay Buffer (Zen-Bio) at 37° C. in a humidified atmosphere of 5% CO2/95% air. Free fatty acid concentrations in the media were determined using a Free Fatty Acid Assay kit (Zen-Bio) according to the manufacturer's instructions using a Cytation 3 plate reader at 540 nm (BioTek, Winooski, Vt.). Absorbance values were corrected for untreated background and expressed relative to isoproterenol treated cells. Treatment with isoproterenol (1 nM) alone was used as the free fatty acid level stimulatory control. The relative standard deviation of the isoproterenol control was <10%. […] Free fatty acid levels for insulin (100 nM) treatment were <5% of the isoproterenol control value.

T1 sequence (P61073 whole entry): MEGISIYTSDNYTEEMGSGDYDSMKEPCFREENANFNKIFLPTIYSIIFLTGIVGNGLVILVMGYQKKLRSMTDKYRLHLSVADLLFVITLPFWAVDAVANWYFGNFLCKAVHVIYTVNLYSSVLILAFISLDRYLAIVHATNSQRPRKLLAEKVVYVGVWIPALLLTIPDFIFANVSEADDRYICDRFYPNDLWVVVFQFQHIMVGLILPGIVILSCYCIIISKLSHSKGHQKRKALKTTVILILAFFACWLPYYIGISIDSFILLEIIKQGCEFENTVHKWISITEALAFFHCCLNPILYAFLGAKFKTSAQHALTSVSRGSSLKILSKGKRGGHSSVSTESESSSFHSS

Cn1nnc2c(C(N)=O)ncn2c1=O [Temozolomide, reference compound]
Mean (SEM) Percent Reduction in Tumor Volume vs Control [1]: 37.9% | Mean (SEM) Tumor Volume on Day 11 [1]: 1190 mm^3

CC(C)C[C@H](NC(=O)[C@@H](NC(=O)[C@H](CO)NC(=O)[C@H](CCCNC(=N)N)NC(=O)[C@@H](NC(=O)[C@H](CO)NC(=O)[C@H](Cc1c[nH]cn1)NC(=O)[C@H](Cc1c[nH]cn1)NC(=O)[C@H](Cc1ccc(O)cc1)NC(=O)[C@H](CCCNC(=N)N)NC(=O)[C@H](CCC(=O)O)NC(=O)[C@@H](N)CC(C)C)C(C)C)[C@@H](C)O)C(=O)N[C@@H](CCCNC(=N)N)C(=O)N1CCC[C@H]1C(=O)N[C@@H](Cc1ccc(O)cc1)C(=O)N[C@H](C(=O)N[C@@H](CCCCN)C(=O)O)[C@@H](C)O [compound 74] (H-LERYHHSVRSTLRPYTK-OH; N-terminus and C-terminus assumed)
Percent Inhibition of CXCR4/CXCL12 Induced p-MEK (100 nM Test Article) [2]: 48% | Percent Inhibition of CXCR4/CXCL12 Induced p-MEK (1 μM Test Article) [2]: 93% | Percent Inhibition of CXCL12 Mediated Migration (1.1 μM Test Article) (Jurkat cells): 61% | Percent Inhibition of CXCR4/CXCL12 Binding (400 nM peptide) (human CXCR4 [3]): 88% | IC50 (human CXCR4 [4]): 5 nM | IC50 (human CXCR4 [5]): 6 nM

CC(C)C[C@H](NC(=O)[C@H](CO)NC(=O)[C@H](CO)NC(=O)[C@H](CCCNC(=N)N)NC(=O)[C@@H](NC(=O)[C@H](CO)NC(=O)[C@H](Cc1c[nH]cn1)NC(=O)[C@H](Cc1c[nH]cn1)NC(=O)[C@H](Cc1ccc(O)cc1)NC(=O)[C@H](CCCNC(=N)N)NC(=O)[C@H](CCC(=O)O)NC(=O)[C@@H](N)CC(C)C)C(C)C)C(=O)N[C@@H](CCCNC(=N)N)C(=O)N1CCC[C@H]1C(=O)N[C@@H](Cc1ccc(O)cc1)C(=O)N[C@@H](CO)C(=O)N[C@@H](CCCCN)C(=O)O [compound 75] (H-LERYHHSVRSSLRPYSK-OH; N-terminus and C-terminus assumed)
Percent Inhibition of CXCR4/CXCL12 Induced p-MEK (100 nM Test Article) [2]: 60% | Percent Inhibition of CXCR4/CXCL12 Induced p-MEK (1 μM Test Article) [2]: 100% | Percent Inhibition of CXCL12 Mediated Migration (1.1 μM Test Article) (Jurkat cells): 81% | Percent Inhibition of CXCR4/CXCL12 Binding (400 nM peptide) (human CXCR4 [3]): 81% | IC50 (human CXCR4 [4]): 4 nM | IC50 (human CXCR4 [5]): 11 nM

CC(C)C[C@H](NC(=O)[C@H](CO)NC(=O)[C@H](CO)NC(=O)[C@H](CCCNC(=N)N)NC(=O)[C@@H](NC(=O)[C@H](CO)NC(=O)[C@H](Cc1c[nH]cn1)NC(=O)[C@H](Cc1c[nH]cn1)NC(=O)[C@H](Cc1ccc(O)cc1)NC(=O)[C@H](CCCNC(=N)N)NC(=O)[C@H](CCC(=O)O)NC(=O)[C@@H](N)CC(C)C)C(C)C)C(=O)N[C@@H](CCCNC(=N)N)C(=O)NCC(=O)N[C@@H](Cc1ccc(O)cc1)C(=O)N[C@H](C(=O)N[C@@H](CCCCN)C(=O)O)[C@@H](C)O [compound 80] (H-LERYHHSVRSSLRGYTK-OH; N-terminus and C-terminus assumed)
Percent Inhibition of CXCR4/CXCL12 Induced p-MEK (100 nM Test Article) [2]: 52% | Percent Inhibition of CXCR4/CXCL12 Induced p-MEK (1 μM Test Article) [2]: 96% | Percent Inhibition of CXCL12 Mediated Migration (1.1 μM Test Article) (Jurkat cells): 71% | Percent Inhibition of CXCR4/CXCL12 Binding (400 nM peptide) (human CXCR4 [3]): 88% | IC50 (human CXCR4 [4]): 4 nM | IC50 (human CXCR4 [5]): 6 nM

CN(C)C(=N)N=C(N)N [metformin, Metformin, reference compound]
Glucose levels, % of 0.1% DMSO treated control value (C2C12 Mouse Myoblasts): < 20%

Insulin [reference compound]
Free fatty acid levels, % of isoproterenol control value (3T3-L1 Mouse Adipocytes): < 5%

LERYHHS(dA)RSSLRPYT (LERYHHS[dA]RSSLRPYT) [SEQ ID NO: 5]
Mean (SEM) Percent Reduction in Tumor Volume vs Control [1]: 7.2% | Mean (SEM) Tumor Volume on Day 11 [1]: 1770 mm^3

LERYHHSVRSSLRPYTK (LERYHHSVRSSLRPYTK-NH2) [SEQ ID NO: 4]
Mean (SEM) Percent Reduction in Tumor Volume vs Control [1]: 14.9% | Mean (SEM) Tumor Volume on Day 11 [1]: 1620 mm^3
